Results: ChEMBL document CHEMBL1129939, “Meta-substituted benzofused macrocyclic lactams as zinc metalloprotease inhibitors” (J Med Chem, 1997)

Assays:
[1] = biological target: Angiotensin-converting enzyme (Homo sapiens, UniProt P12821); test: Inhibitory concentration required to inhibit Angiotensin I converting enzyme (ACE)
Neprilysin = Neprilysin (Homo sapiens, UniProt P08473); test: Inhibitory concentration required to inhibit neutral endopeptidase (NEP)
Thermolysin = biological target: T1, Thermolysin (Bacillus thermoproteolyticus, UniProt P00800); test: Inhibitory concentration required to inhibit thermolysin (TLN)
T1 sequence (P00800 whole entry): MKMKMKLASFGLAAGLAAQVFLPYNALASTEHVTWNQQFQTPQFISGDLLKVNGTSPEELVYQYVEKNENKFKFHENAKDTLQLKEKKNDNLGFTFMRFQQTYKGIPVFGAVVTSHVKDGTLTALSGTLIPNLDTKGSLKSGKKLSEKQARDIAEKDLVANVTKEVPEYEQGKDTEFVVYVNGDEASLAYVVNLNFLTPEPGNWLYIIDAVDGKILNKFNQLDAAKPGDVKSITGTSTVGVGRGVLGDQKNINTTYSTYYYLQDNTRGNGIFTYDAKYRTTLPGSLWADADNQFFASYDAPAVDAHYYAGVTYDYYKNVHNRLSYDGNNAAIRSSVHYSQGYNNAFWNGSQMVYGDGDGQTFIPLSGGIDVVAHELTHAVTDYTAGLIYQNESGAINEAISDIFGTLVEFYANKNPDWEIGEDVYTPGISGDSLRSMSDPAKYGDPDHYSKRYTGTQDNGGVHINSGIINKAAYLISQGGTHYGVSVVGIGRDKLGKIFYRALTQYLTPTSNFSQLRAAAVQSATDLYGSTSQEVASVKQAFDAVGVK

Sequence of Neprilysin (P08473 whole entry): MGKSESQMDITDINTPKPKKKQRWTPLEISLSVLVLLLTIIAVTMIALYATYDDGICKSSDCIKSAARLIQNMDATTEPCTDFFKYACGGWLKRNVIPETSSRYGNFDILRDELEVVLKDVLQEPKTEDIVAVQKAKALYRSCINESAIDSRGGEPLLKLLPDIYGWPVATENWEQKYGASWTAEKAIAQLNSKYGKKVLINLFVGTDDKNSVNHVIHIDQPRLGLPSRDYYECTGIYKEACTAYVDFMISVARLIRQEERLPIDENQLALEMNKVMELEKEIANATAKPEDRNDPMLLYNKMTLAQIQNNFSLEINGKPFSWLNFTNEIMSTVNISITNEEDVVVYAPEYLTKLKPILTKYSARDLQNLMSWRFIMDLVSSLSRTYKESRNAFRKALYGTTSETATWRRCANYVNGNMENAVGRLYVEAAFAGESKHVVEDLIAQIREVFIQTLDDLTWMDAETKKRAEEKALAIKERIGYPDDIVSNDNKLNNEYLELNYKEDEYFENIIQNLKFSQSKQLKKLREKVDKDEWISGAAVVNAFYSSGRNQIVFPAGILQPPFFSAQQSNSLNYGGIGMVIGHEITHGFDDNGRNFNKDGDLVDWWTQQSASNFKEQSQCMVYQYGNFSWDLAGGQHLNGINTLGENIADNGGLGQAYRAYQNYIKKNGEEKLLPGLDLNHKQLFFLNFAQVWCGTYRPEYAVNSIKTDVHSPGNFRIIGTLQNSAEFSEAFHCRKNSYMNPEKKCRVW
Sequence of Angiotensin-converting enzyme (P12821 whole entry): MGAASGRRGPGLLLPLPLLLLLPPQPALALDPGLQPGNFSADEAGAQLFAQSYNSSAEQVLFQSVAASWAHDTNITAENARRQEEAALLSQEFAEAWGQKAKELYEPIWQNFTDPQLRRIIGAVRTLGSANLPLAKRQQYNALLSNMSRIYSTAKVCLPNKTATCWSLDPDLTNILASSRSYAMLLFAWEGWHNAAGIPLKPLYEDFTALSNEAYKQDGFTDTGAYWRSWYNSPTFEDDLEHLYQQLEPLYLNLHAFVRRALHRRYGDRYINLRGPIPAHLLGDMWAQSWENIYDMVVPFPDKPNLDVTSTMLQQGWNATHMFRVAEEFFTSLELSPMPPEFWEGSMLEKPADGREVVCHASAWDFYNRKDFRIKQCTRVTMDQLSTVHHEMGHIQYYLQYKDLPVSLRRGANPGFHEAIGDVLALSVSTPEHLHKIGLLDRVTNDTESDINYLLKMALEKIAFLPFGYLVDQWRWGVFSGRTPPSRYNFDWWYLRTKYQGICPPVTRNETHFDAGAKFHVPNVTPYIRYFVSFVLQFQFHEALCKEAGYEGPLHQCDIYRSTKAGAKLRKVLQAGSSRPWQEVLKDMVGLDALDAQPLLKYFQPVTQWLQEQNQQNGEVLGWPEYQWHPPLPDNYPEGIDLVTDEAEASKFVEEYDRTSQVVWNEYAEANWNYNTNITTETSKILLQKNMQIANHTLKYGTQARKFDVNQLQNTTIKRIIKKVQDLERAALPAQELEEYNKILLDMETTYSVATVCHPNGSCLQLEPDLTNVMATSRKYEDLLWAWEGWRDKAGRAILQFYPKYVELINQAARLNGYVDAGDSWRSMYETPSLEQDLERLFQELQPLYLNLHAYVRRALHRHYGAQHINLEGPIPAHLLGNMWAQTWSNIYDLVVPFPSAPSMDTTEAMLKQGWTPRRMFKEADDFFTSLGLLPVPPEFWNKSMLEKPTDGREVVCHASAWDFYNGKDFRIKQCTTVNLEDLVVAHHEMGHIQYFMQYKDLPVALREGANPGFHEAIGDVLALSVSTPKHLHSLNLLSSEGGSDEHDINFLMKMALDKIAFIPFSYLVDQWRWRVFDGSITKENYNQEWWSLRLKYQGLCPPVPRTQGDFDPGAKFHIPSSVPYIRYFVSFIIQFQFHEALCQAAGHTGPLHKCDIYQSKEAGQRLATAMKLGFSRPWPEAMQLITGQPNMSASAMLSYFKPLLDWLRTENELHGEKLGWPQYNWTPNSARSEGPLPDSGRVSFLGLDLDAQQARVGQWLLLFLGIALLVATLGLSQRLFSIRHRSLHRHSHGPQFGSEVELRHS

Structure (SMILES) | IC50 [1] [nM] | IC50 (Neprilysin) [nM] | IC50 (Thermolysin) [nM]
O=C1N[C@H](C(=O)O)CCCCCCc2ccccc2C[C@H]1CS | > 10000 | 224 | 41000
O=C1N[C@@H](C(=O)O)Cc2ccccc2CCCCC[C@@H]1CS | 6000 | – | –
O=C1N[C@H](C(=O)O)CCCCCCc2ccccc2C[C@@H]1CS | > 10000 | 27 | 1800
O=C1N[C@H](C(=O)O)CCCCc2ccccc2C[C@@H]1CS | > 10000 | – | –
O=C1N[C@H](C(=O)O)CCCCCc2ccccc2C[C@@H]1CS | 8000 | – | –
O=C1N[C@H](C(=O)O)CCCCc2ccccc2C[C@H]1CS | > 10000 | – | –
O=C1N[C@@H](C(=O)O)Cc2ccccc2CCCCCCC[C@@H]1CS | > 10000 | – | –

The next molecules have a lower IC50 [1] than those just listed; values first:

IC50 [1] [nM] | IC50 (Neprilysin) [nM] | IC50 (Thermolysin) [nM] | Structure (SMILES)
2000 | – | – | O=C1N[C@H](C(=O)O)CCCCCc2ccccc2C[C@H]1CS
1400 | 1000 | > 10000 | O=C1N[C@H](C(=O)O)CCCCCc2cccc(c2)C[C@H]1CS
725 | – | – | O=C1N[C@H](C(=O)O)Cc2ccccc2CCCCCC[C@@H]1CS
500 | – | – | C[C@H](CS)C(=O)N1Cc2[nH]c3ccccc3c2CC1C(=O)O (some centres not stated)
470 | – | – | O=C1N[C@@H](C(=O)O)Cc2ccccc2CCCCCC[C@@H]1CS
175 | 4 | 34000 | O=C1N[C@H](C(=O)O)CCCCCCc2cccc(c2)C[C@@H]1CS
118 | 445 | > 10000 | O=C1N[C@H](C(=O)O)CCCCCCc2cccc(c2)C[C@H]1CS
4 | 8 | 48000 | O=C1N[C@H](C(=O)O)CCCCCc2cccc(c2)C[C@@H]1CS
